Test results reported in ChEMBL document CHEMBL1157738, “Simocyclinone D8 turns on against Gram-negative bacteria in a clinical setting” (2010).
In brackets after ≈: the same amount, converted by molar mass.

Experiments:
Assay type in all cases: functional
Escherichia coli [1] = test: Antibacterial activity against Escherichia coli isolate 7 after 24 hrs by twofold serial dilution method
Escherichia coli [2] = test: Antibacterial activity against Escherichia coli Top10 after 24 hrs by twofold serial dilution method
Escherichia coli [3] = test: Antibacterial activity against Escherichia coli HB101 after 24 hrs by twofold serial dilution method
Escherichia coli [4] = test: Antibacterial activity against Escherichia coli JM109 after 24 hrs by twofold serial dilution method
Escherichia coli [5] = test: Antibacterial activity against Escherichia coli JM110 after 24 hrs by twofold serial dilution method
Escherichia coli [6] = test: Antibacterial activity against Escherichia coli XL-1Blue after 24 hrs by twofold serial dilution method
Staphylococcus aureus [7] = test: Antibacterial activity against Staphylococcus aureus after 24 hrs by twofold serial dilution method
Staphylococcus aureus [8] = test: Antibacterial activity against Staphylococcus aureus assessed as residual bacterial survival at 50 mg/L after 24 hrs by twofold serial dilution method
Escherichia coli [9] = test: Antibacterial activity against Escherichia coli XL-1Blue assessed as residual bacterial survival at 50 mg/L after 24 hrs by twofold serial dilution method
Escherichia coli [10] = test: Antibacterial activity against Escherichia coli JM110 assessed as residual bacterial survival at 50 mg/L after 24 hrs by twofold serial dilution method; details: JM110, 24 h
Escherichia coli [11] = test: Antibacterial activity against Escherichia coli JM109 assessed as residual bacterial survival at 50 mg/L after 24 hrs by twofold serial dilution method; details: JM109, JM 109, 24 h
Escherichia coli [12] = test: Antibacterial activity against Escherichia coli HB101 assessed as residual bacterial survival at 50 mg/L after 24 hrs by twofold serial dilution method; details: HB101, 24 h
Escherichia coli [13] = test: Antibacterial activity against Escherichia coli Top10 assessed as residual bacterial survival at 50 mg/L after 24 hrs by twofold serial dilution method; details: Top10, 24 h
Escherichia coli [14] = test: Antibacterial activity against Escherichia coli isolate 7 assessed as residual bacterial survival at 50 mg/L after 24 hrs by twofold serial dilution method; details: isolate 7, 24 h
Escherichia coli [15] = test: Antibacterial activity against Escherichia coli isolate 13 assessed as residual bacterial survival at 50 mg/L after 24 hrs by twofold serial dilution method; details: isolate 13, 24 h
Escherichia coli [16] = test: Antibacterial activity against Escherichia coli isolate 21 assessed as residual bacterial survival at 50 mg/L after 24 hrs by twofold serial dilution method; details: isolate 21, 24 h
Escherichia coli [17] = test: Antibacterial activity against Escherichia coli isolate 32 assessed as residual bacterial survival at 50 mg/L after 24 hrs by twofold serial dilution method; details: isolate 32, 24 h
Escherichia coli [18] = test: Antibacterial activity against Escherichia coli isolate 95 expressing GyrA S83L mutant assessed as residual bacterial survival at 50 mg/L after 24 hrs by twofold serial dilution method; details: isolate 95, 24 h
Escherichia coli [19] = test: Antibacterial activity against Escherichia coli isolate 115 expressing GyrA S83L mutant assessed as residual bacterial survival at 50 mg/L after 24 hrs by twofold serial dilution method; details: isolate 115, 24 h
Escherichia coli [20] = test: Antibacterial activity against Escherichia coli isolate 85 expressing GyrA S83L mutant assessed as residual bacterial survival at 50 mg/L after 24 hrs by twofold serial dilution method; details: isolate 85, 24 h
Escherichia coli [21] = test: Antibacterial activity against Escherichia coli isolate 41 assessed as residual bacterial survival at 50 mg/L after 24 hrs by twofold serial dilution method; details: isolate 41, 24 h
Klebsiella pneumoniae [22] = test: Antibacterial activity against Klebsiella pneumoniae isolate 97 expressing qnr B19 gene after 24 hrs by twofold serial dilution method
Escherichia coli [23] = test: Antibacterial activity against Escherichia coli isolate 24 after 24 hrs by twofold serial dilution method
Escherichia coli [24] = test: Antibacterial activity against Escherichia coli isolate 41 after 24 hrs by twofold serial dilution method
Escherichia coli [25] = test: Antibacterial activity against Escherichia coli isolate 191 expressing qnr S1 gene after 24 hrs by twofold serial dilution method
Escherichia coli [26] = test: Antibacterial activity against Escherichia coli isolate 50 expressing qnr B19 gene after 24 hrs by twofold serial dilution method
Escherichia coli [27] = test: Antibacterial activity against Escherichia coli isolate 47 expressing qnr B19 gene after 24 hrs by twofold serial dilution method
Klebsiella pneumoniae [28] = test: Antibacterial activity against Klebsiella pneumoniae isolate 173 after 24 hrs by twofold serial dilution method
Klebsiella pneumoniae [29] = test: Antibacterial activity against Klebsiella pneumoniae isolate 91 after 24 hrs by twofold serial dilution method
Klebsiella pneumoniae [30] = test: Antibacterial activity against Klebsiella pneumoniae isolate 134 after 24 hrs by twofold serial dilution method
Klebsiella pneumoniae [31] = test: Antibacterial activity against Klebsiella pneumoniae isolate 92 after 24 hrs by twofold serial dilution method

Compound: CC(=O)O[C@@H]1[C@@H](C)O[C@@H](c2ccc3c(c2O)[C@@H](O)[C@]24O[C@@]2(C3=O)[C@@]2(O)C(=O)C=C(C)C[C@@]2(O)C[C@@H]4O)C[C@H]1OC(=O)/C=C/C=C/C=C/C=C/C(=O)Nc1c(O)c2ccc(O)c(Cl)c2oc1=O [SIMOCYCLINONE D8]
- MIC50 (Escherichia coli [1]): >100%
- MIC50 (Escherichia coli [2]): > 100 µg/mL
- MIC50 (Escherichia coli [3]): > 100 µg/mL
- MIC50 (Escherichia coli [4]): > 100 µg/mL
- MIC50 (Escherichia coli [5]): > 100 µg/mL
- MIC50 (Escherichia coli [6]): > 100 µg/mL
- MIC50 (Staphylococcus aureus [7]): 50 µg/mL (≈ 53.6 µM)
- survival at 50 µg/mL (Staphylococcus aureus [8]): 66%
- survival at 50 µg/mL (Escherichia coli [9]): > 90%
- survival at 50 µg/mL (Escherichia coli [10]): > 90%
- survival at 50 µg/mL (Escherichia coli [11]): > 90%
- survival at 50 µg/mL (Escherichia coli [12]): > 90%
- survival at 50 µg/mL (Escherichia coli [13]): > 90%
- survival at 50 µg/mL (Escherichia coli [14]): > 90%
- survival at 50 µg/mL (Escherichia coli [15]): > 90%
- survival at 50 µg/mL (Escherichia coli [16]): > 90%
- survival at 50 µg/mL (Escherichia coli [17]): > 90%
- survival at 50 µg/mL (Escherichia coli [18]): > 90%
- survival at 50 µg/mL (Escherichia coli [19]): > 90%
- survival at 50 µg/mL (Escherichia coli [20]): > 90%
- survival at 50 µg/mL (Escherichia coli [21]): 9%
- MIC50 (Klebsiella pneumoniae [22]): 50 µg/mL (≈ 53.6 µM)
- MIC50 (Escherichia coli [23]): 3.12 µg/mL (≈ 3.35 µM)
- MIC50 (Escherichia coli [24]): 0.78 µg/mL (≈ 0.837 µM)
- MIC50 (Escherichia coli [25]): 25 µg/mL (≈ 26.8 µM)
- MIC50 (Escherichia coli [26]): 12 µg/mL (≈ 12.9 µM)
- MIC50 (Escherichia coli [27]): 12 µg/mL (≈ 12.9 µM)
- MIC50 (Klebsiella pneumoniae [28]): 100 µg/mL (≈ 107 µM)
- MIC50 (Klebsiella pneumoniae [29]): > 100 µg/mL
- MIC50 (Klebsiella pneumoniae [30]): 25 µg/mL (≈ 26.8 µM)
- MIC50 (Klebsiella pneumoniae [31]): 50 µg/mL (≈ 53.6 µM)
